Values of other authors as cited in article PMC9239115 (Amino acids, 2017).

Legend:
[1] = degraded in the circulation by ACE; ref Rodgers et al. 2006
C6 glioma cell lines = settings: up to 200 μM; ref Pes 2013

Row | SMILES | Half-life in the circulation [1] [min] | Toxicity on C6 glioma cell lines (C6 glioma cell lines)
1 | CC[C@H](C)[C@H](NC(=O)[C@H](Cc1ccc(O)cc1)NC(=O)[C@@H](NC(=O)[C@H](CCCNC(=N)N)NC(=O)[C@@H](N)CC(=O)O)C(C)C)C(=O)N[C@@H](Cc1c[nH]cn1)C(=O)N1CCC[C@H]1C(=O)O [Ang-(1–7), Angiotensin-(1–7)] | 29 | –
2 | NC[C@H]1C[C@@H](C(=O)O)C1 [ACCA, cis-3-(Aminomethyl)cyclobutanecarboxylic acid] | – | did not show any toxicity
